Among the data in US20260242395A1, “AMINOHETEROARYL KINASE INHIBITORS” (ALLORION THERAPEUTICS INC, priority 2022, published 2026) are IC50 values, retold here.

Assay type in all cases: biochemical
For one assay, the target named is T1, CDK1/CyclinB (Homo sapiens, UniProt P06493).
T1 construct: purchased Millipore 14-450M
The assay can be described thus: CDK1/CyclinB kinase inhibitory activity (Caliper mobility shift). To be noted: enzyme 3 nM, ATP 20 μM, 28° C. 30 min; read-out: CDK1/Cyclin B1 IC50. Here is the method: CDK1/CyclinB kinase inhibitory activity (IC50): 5 μl of various dilutions of test compound in 1× kinase buffer (50 mM HEPES pH 7.5, 10 mM MgCl2, 2 mM DTT and 0.01% Brij-35) was mixed with 10 μL of CDK1/CyclinB (Millipore, 14-450M #, final concentration 3 nM in 1× Kinase buffer) in 384 plates and incubated at room temperature for 10 min. To initiate each reaction, 10 μL of peptide solution containing fluorescently-labeled-peptide 18(5-FAM-QSPKKG-CONH2) (GL, 114202 #, final concentration 3000 nM) and ATP (final concentration 20 μM) in 1× Kinase buffer was added to each of the wells containing test compound and CDK1/CyclinB mixture. The reaction is then allowed to proceed at 28° C. for 30 min and terminated by the addition of 25 μL stop buffer (100 mM HEPES pH 7.5, 50 mM EDTA, 0.2% Coating Reagent #3 (Perkin Elmer, 760050 #) and 0.015% Brij-35).
(§1) Following the kinase reaction, Caliper EZ reader II (Downstream voltages: −500V, Upstream voltages: −2250V, Base pressure −0.5 PSI, Screen pressure −1.2 PSI) was used to separate the phosphorylated (product) and the unphosphorylated (substrate) fluorescently-labeled peptide 18 based on their different mobility. Both substrate and product were measured and the ratio of these values were used to generate % conversion by Caliper EZ reader II. These conversion values were then transformed into % inhibition of kinase activity using the formula: % Inhibition=[(MA−X)/(MA−MI)]×100% where MA=conversion value of DMSO only controls, MI=conversion value of no enzyme controls and X=conversion value at any given compound dose. IC50 values were then calculated by plotting dose-response curves and then using the XLfit application in Excel software.

The target of the next assay is T2, CDK6/CyclinD3 (Homo sapiens, UniProt Q00534).
T2 construct: purchased Carna 04-107
T2 sequence (Q00534 whole entry): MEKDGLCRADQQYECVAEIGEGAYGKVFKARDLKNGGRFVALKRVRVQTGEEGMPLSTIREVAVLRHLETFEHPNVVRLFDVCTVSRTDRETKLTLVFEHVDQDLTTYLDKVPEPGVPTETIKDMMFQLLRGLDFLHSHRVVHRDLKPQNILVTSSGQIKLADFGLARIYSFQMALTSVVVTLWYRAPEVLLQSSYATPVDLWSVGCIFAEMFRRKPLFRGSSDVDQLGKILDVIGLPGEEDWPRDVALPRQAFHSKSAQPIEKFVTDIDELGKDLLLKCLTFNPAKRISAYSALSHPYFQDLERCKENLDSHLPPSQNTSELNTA
T2 sequence (P30281 whole entry partner): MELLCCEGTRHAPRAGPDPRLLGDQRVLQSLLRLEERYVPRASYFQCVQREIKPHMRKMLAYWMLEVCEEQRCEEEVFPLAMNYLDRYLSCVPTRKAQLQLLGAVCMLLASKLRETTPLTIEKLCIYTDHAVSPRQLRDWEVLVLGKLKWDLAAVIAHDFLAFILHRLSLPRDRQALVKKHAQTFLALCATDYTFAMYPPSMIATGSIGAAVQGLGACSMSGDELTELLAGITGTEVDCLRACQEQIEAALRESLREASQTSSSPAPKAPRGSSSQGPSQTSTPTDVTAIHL
The assay can be described thus: CDK6/CyclinD3 kinase inhibitory activity (Caliper mobility shift). To be noted: enzyme 15 nM, ATP 800 μM, 28° C. 30 min; read-out: CDK6/Cyclin D3 IC50. An outline of the steps: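 Compound preincubated 10 min at room temperature with CDK6/CyclinD3 (15 nM final) in HEPES pH 7.5/MgCl2/DTT buffer; reaction with 5-FAM peptide (3000 nM) and ATP 800 μM, 30 min at 28°C, stopped with EDTA. Substrate/product separated by microfluidic mobility shift; % conversion converted to % inhibition, IC50 from dose-response curves.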

The target in a further assay is T3, CDK7/CyclinH/MAT1 (Homo sapiens, UniProt P50613).
T3 construct: purchased Millipore 14-476M
T3 sequence (P50613 whole entry): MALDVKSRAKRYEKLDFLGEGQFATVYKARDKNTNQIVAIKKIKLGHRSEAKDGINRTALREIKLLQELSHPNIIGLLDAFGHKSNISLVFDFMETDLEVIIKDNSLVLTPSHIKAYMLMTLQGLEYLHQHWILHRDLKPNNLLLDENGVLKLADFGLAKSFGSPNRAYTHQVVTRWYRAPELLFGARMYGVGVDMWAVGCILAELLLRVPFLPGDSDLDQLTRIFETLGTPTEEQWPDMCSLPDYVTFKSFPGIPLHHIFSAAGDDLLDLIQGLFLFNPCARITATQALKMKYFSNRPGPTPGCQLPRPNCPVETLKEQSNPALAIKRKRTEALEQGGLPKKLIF
T3 sequence (P51946 whole entry partner): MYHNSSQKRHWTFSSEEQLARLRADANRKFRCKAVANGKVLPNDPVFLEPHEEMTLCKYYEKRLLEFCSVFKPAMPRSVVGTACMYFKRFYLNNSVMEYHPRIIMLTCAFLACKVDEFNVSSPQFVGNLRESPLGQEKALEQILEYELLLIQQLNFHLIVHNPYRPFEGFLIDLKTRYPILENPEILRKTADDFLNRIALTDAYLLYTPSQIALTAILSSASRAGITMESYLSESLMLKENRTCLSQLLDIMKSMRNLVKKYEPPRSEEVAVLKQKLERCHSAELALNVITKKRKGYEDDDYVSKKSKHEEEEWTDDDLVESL
T3 sequence (P51948 whole entry partner): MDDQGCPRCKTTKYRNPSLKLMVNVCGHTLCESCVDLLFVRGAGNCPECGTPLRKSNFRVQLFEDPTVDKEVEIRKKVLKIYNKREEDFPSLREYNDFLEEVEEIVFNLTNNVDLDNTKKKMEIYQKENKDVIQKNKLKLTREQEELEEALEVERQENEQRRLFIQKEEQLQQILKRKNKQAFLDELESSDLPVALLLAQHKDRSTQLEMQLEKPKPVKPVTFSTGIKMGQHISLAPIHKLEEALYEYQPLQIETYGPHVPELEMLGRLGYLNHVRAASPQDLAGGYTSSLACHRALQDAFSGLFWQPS
The assay can be described thus: CDK7/CyclinH/MAT1 kinase inhibitory activity (Caliper mobility shift). To be noted: enzyme 12.5 nM, ATP 70 μM, 28° C. 30 min; read-out: CDK7/Cyclin H/MAT1 IC50. The procedure: CDK7/CyclinH/MAT1 kinase inhibitory activity (IC50): 5 μl of various dilutions of test compound in 1× kinase buffer (20 mM HEPES, pH 7.5, 10 mM MgCl2, 2 mM DTT and 0.01% Triton X-100) was mixed with 10 μL of CDK7/CyclinH/MAT1 (Millipore, 14-476M #, final concentration 12.5 nM in 1× Kinase buffer) in 384 plates and incubated at room temperature for 10 min. To initiate each reaction, 10 μL of peptide solution containing fluorescently-labeled-peptide CTD3 (5-FAM-[…], GL, SY346885 #, final concentration 3000 nM) and ATP (final concentration 70 μM) in 1× Kinase buffer was added to each of the wells containing test compound and CDK7/CyclinH/MAT1 mixture. The reaction is then allowed to proceed at 28° C. for 30 min and terminated by the addition of 25 μL stop buffer (100 mM HEPES pH 7.5, 50 mM EDTA, 0.2% Coating Reagent #3 (Perkin Elmer, 760050 #) and 0.015% Brij-35).
as §1, with “the phosphoiylated” for “the phosphorylated”, “peptide CTD3” for “peptide 18”

T1 sequence (P06493 whole entry): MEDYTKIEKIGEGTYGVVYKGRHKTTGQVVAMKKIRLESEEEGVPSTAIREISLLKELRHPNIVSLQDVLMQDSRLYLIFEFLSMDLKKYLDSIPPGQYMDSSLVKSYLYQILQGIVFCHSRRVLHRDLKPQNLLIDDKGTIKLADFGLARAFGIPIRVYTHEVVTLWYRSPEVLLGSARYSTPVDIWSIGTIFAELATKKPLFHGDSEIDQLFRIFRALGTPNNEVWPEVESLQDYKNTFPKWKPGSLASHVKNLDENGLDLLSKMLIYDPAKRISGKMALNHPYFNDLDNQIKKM
T1 sequence (P14635 whole entry partner): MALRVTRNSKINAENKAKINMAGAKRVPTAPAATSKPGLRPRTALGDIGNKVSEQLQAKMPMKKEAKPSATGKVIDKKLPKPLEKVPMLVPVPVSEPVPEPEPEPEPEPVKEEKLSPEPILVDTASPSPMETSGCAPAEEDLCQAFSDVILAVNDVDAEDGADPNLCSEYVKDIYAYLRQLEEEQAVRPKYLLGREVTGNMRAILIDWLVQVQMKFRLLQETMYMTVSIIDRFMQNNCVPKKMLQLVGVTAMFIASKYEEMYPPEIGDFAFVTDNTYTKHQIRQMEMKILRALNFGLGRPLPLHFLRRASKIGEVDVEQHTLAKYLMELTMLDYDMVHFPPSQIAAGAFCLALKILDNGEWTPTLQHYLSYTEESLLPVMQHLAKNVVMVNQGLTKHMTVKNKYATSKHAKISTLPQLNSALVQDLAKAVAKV

Consider `CC(C)(O)c1cnc2c(F)cc(-c3nc(N[C@@H]4CCOC[C@H]4O)ncc3Cl)cc2c1Cl` [Example 17, (3S,4R)-4-((5-chloro-4-(4-chloro-8-fluoro-3-(2-hydroxypropan-2-yl)quinolin-6-yl)pyrimidin-2-yl)amino)tetrahydro-2H-pyran-3-ol], for which the IC50 was 0.1 to 1 µM at CDK1/CyclinB, 0.01 to 0.1 µM on CDK6/CyclinD3 and no less than 1 µM at CDK7/CyclinH/MAT1.

Consider `CC(C)n1c(C(C)(C)O)nc2c(F)cc(-c3cc(N[C@@H]4CCOC[C@H]4O)ncc3Cl)cc21` [Example 12, (3S,4R)-4-((5-chloro-4-(4-fluoro-2-(2-hydroxypropan-2-yl)-1-isopropyl-1H-benzo[d]imidazol-6-yl)pyridin-2-yl)amino)tetrahydro-2H-pyran-3-ol], for which the IC50 at CDK1/CyclinB was no less than 1 µM; at CDK6/CyclinD3 it was 0.1 to 1 µM; at CDK7/CyclinH/MAT1 it was no less than 1 µM.

With `O[C@@H]1COCC[C@H]1Nc1ncc(Cl)c(-c2cc(F)c3ncc4c(c3c2)CNC2(CC2)C4)n1` [Example 21, (3S,4R)-4-((5-chloro-4-(7-fluoro-1,4-dihydro-2H-spiro[benzo[c][2,6]naphthyridine-3,1′-cyclopropan]-9-yl)pyrimidin-2-yl)amino)tetrahydro-2H-pyran-3-ol], the IC50 on CDK1/CyclinB is 0.1 to 1 µM; at CDK6/CyclinD3 it was 0.1 to 1 µM; on CDK7/CyclinH/MAT1 it was no less than 1 µM.

For `CNC(C)(C)c1cnc2c(F)cc(-c3nc(N[C@@H]4CCOC[C@H]4O)ncc3Cl)cc2c1` [Example 36], the results for the IC50 on CDK1/CyclinB, on CDK6/CyclinD3 and at CDK7/CyclinH/MAT1 were no less than 1 µM, 0.1 to 1 µM and no less than 1 µM, respectively.

For `Cc1nc2c(F)cc(-c3nc(N[C@@H]4CCOC[C@H]4O)ncc3Cl)cc2c2c1CC(C)(C)NC2` [Example 98], the IC50 at CDK1/CyclinB was no less than 1 µM; at CDK6/CyclinD3, 0.1 to 1 µM; at CDK7/CyclinH/MAT1, no less than 1 µM.

For `CC1(C)NCc2c(cnc3c(F)cc(-c4nc(N[C@@H]5CCOC[C@H]5O)ncc4F)cc23)C1O` (single isomer, unassigned) [Example 106b], the IC50 at CDK1/CyclinB fell in the range of 0.1 to 1 µM; at CDK6/CyclinD3, 0.01 to 0.1 µM; on CDK7/CyclinH/MAT1, 0.1 to 1 µM.

On to `CC(C)(N)c1cnc2c(F)cc(-c3nc(N[C@@H]4CCOC[C@H]4O)ncc3Cl)cc2c1` [Example 14, (3S,4R)-4-((4-(3-(2-aminopropan-2-yl)-8-fluoroquinolin-6-yl)-5-chloropyrimidin-2-yl)amino)tetrahydro-2H-pyran-3-ol], for which the IC50 at CDK1/CyclinB fell in the range of 0.01 to 0.1 µM; on CDK6/CyclinD3 it was 0.1 to 1 µM; on CDK7/CyclinH/MAT1 it was 0.1 to 1 µM.

For the compound `O[C@@H]1COCC[C@H]1Nc1ncc(Cl)c(-c2cc(F)c3ncc(C4(O)CC4)cc3c2)n1` [Example 29], the IC50 is 0.1 to 1 µM at CDK1/CyclinB, 0.1 to 1 µM on CDK6/CyclinD3 and no less than 1 µM on CDK7/CyclinH/MAT1.

`Cc1nc2c(F)cc(-c3nc(N[C@@H]4CCOC[C@H]4O)ncc3Cl)cc2cc1C(C)(C)O` [Example 5, (3S,4R)-4-((5-chloro-4-(8-fluoro-3-(2-hydroxypropan-2-yl)-2-methylquinolin-6-yl)pyrimidin-2-yl)amino)tetrahydro-2H-pyran-3-ol]: the IC50 is no less than 1 µM on CDK1/CyclinB, 0.1 to 1 µM at CDK6/CyclinD3 and no less than 1 µM on CDK7/CyclinH/MAT1.

Regarding `Cc1c(C(C)NC2CC2)cnc2c(F)cc(-c3nc(N[C@@H]4CCOC[C@H]4O)ncc3Cl)cc12` (single isomer, unassigned) [Example 91b], the IC50 on CDK1/CyclinB is no less than 1 µM; on CDK6/CyclinD3, 0.1 to 1 µM; on CDK7/CyclinH/MAT1, no less than 1 µM.

For `[2H]c1nc(N[C@@H]2CCOC[C@H]2O)nc(-c2cc(F)c3nc([2H])c4c(c3c2)CNC2(CC2)C4)c1Cl` [Example 68], the IC50 on CDK1/CyclinB is 0.1 to 1 µM; on CDK6/CyclinD3, 0.01 to 0.1 µM; on CDK7/CyclinH/MAT1, 0.1 to 1 µM.

In the case of `[2H]c1nc2c(F)cc(-c3nc(N[C@@H]4CCOC[C@H]4O)ncc3F)cc2c(C)c1C(C)(C)O` [Example 94], the values for the IC50 at CDK1/CyclinB, at CDK6/CyclinD3 and on CDK7/CyclinH/MAT1 were 0.1 to 1 µM, 0.01 to 0.1 µM and 0.01 to 0.1 µM, respectively.

For `CC(C)(O)c1cnc2c(F)cc(-c3nc(N[C@@H]4CCOC[C@H]4O)ncc3C#N)cc2c1Cl` [Example 41], the IC50 is no less than 1 µM on CDK1/CyclinB, 0.01 to 0.1 µM at CDK6/CyclinD3 and no less than 1 µM on CDK7/CyclinH/MAT1.

In the case of `CNC(C)c1cnc2c(F)cc(-c3nc(N[C@@H]4CCOC[C@H]4O)ncc3Cl)cc2c1` (single isomer, unassigned) [Example 32a], the IC50 was 0.1 to 1 µM at CDK1/CyclinB, 0.1 to 1 µM on CDK6/CyclinD3 and no less than 1 µM on CDK7/CyclinH/MAT1.

For `Cc1nc2c(F)cc(-c3nc(N[C@@H]4CCOC[C@H]4O)ncc3F)cc2c(C)c1C(C)O` (single isomer, unassigned) [Example 81b], the figures for the IC50 on CDK1/CyclinB, at CDK6/CyclinD3 and at CDK7/CyclinH/MAT1 were 0.1 to 1 µM, 0.01 to 0.1 µM and 0.1 to 1 µM, respectively.

Take `O[C@@H]1COCC[C@H]1Nc1cc(-c2cc(F)c3ncc4c(c3c2)CNCC4)c(Cl)cn1` [Example 25]: the IC50 at CDK1/CyclinB, on CDK6/CyclinD3 and at CDK7/CyclinH/MAT1 was 0.01 to 0.1 µM each time.

With `Cc1nc2c(F)cc(-c3nc(N[C@@H]4CCOC[C@H]4O)ncc3Cl)cc2c(Cl)c1C(C)O` (single isomer, unassigned) [Example 35b], the IC50 on CDK1/CyclinB is no less than 1 µM; at CDK6/CyclinD3, 0.1 to 1 µM; at CDK7/CyclinH/MAT1 it was no less than 1 µM.

On to `Cc1c(C(C)(C)O)cnc2c(F)cc(-c3nc(N[C@@H]4CCOC[C@H]4O)ncc3F)cc12` [Example 23, (3S,4R)-4-((5-fluoro-4-(8-fluoro-3-(2-hydroxypropan-2-yl)-4-methylquinolin-6-yl)pyrimidin-2-yl)amino)tetrahydro-2H-pyran-3-ol], for which the IC50 at CDK1/CyclinB was in the range of 0.1 to 1 µM; at CDK6/CyclinD3, 0.01 to 0.1 µM; on CDK7/CyclinH/MAT1 it was 0.01 to 0.1 µM.

Take `Cc1[nH]cnc1-c1cnc2c(F)cc(-c3nc(N[C@@H]4CCOC[C@H]4O)ncc3Cl)cc2c1` [Example 18, (3S,4R)-4-((5-chloro-4-(8-fluoro-3-(5-methyl-1H-imidazol-4-yl)quinolin-6-yl)pyrimidin-2-yl)amino)tetrahydro-2H-pyran-3-ol]: the IC50 was 0.1 to 1 µM at CDK1/CyclinB, 0.1 to 1 µM at CDK6/CyclinD3 and no less than 1 µM on CDK7/CyclinH/MAT1.

Regarding `CNC(C)c1cc2cc(-c3nc(N[C@@H]4CCOC[C@H]4O)ncc3Cl)cc(F)c2nc1C` (single isomer, unassigned) [Example 45a], the IC50 on CDK1/CyclinB is 0.1 to 1 µM; at CDK6/CyclinD3, 0.1 to 1 µM; at CDK7/CyclinH/MAT1 it was no less than 1 µM.

Consider `Cc1c(C(C)O)cnc2c(F)cc(-c3nc(N[C@@H]4CCOC[C@H]4O)ncc3Cl)cc12` (single isomer, unassigned) [Example 88a], for which the IC50 on CDK1/CyclinB lay in the range of 0.1 to 1 µM; on CDK6/CyclinD3, 0.01 to 0.1 µM; on CDK7/CyclinH/MAT1 it was 0.1 to 1 µM.

Turning to `CC1Cc2cnc3c(F)cc(-c4nc(N[C@@H]5CCOC[C@H]5O)ncc4Cl)cc3c2CN1` (single isomer, unassigned) [Example 34a], the IC50 at CDK1/CyclinB was in the range of 0.1 to 1 µM; at CDK6/CyclinD3 it was 0.01 to 0.1 µM; at CDK7/CyclinH/MAT1, 0.1 to 1 µM.

For the compound `Cc1nc2c(F)cc(-c3nc(N[C@@H]4CCOC[C@H]4O)ncc3F)cc2c2c1CC1(CC1)NC2` [Example 65], the IC50 at CDK1/CyclinB, on CDK6/CyclinD3 and at CDK7/CyclinH/MAT1 was 0.1 to 1 µM each time.
